Experimental data from patent US12370170B2, “Composition comprising naphthoquinone-based compound as active ingredient, for preventing or ameliorating fatigue, cachexia, pain, cognitive decline and hematopoietic stem cell reduction which are side effects related to anticancer drug treatment” (NADIANBIO LTD., priority 2016, dated 2025).

Tests used:
Type in all cases: in vivo, C57BL/6 mice
TNF-α = TNF-α expression in femur by immunohistostaining, 4×ACP animal model; details: dunnione 80 mg/kg oral
Description: (§1) In this invention, 11 weeks old C57BL/6 mice were used. All the mice used in the experiments of the invention were raised in an aseptic animal room at the temperature of 22˜26 L with the humidity of 55˜60%. The mice were allowed to take general solid feed (SAMTACO Co., Ltd., Korea) and water freely. The mice were adapted for 1 week before the experiment. All the experiments were performed after obtaining approval from the clinical trial management committee in accordance with the laboratory animal care and ethics regulations of Wonkwang University. The mouse animal model of the present invention was treated with different anticancer drugs. Particularly, one kind of anticancer drug was administered intraperitoneally one time or more, or several kinds of anticancer drugs were administered once or more times or at different concentrations, leading to the establishment of the animal model of the invention. In the adriamycin-induced animal model, the mice were divided into 6 groups as follows: the control group administered with PBS (Control, 5 mice), the group administered intraperitoneally with adriamycin (4 mg/kg/day) 3 times (ADR, 5 mice), the group administered orally with dunnione or β-lapachone from 3 days before the adriamycin treatment daily (20 mg/kg, 5 mice), and the group administered with dunnione or β-lapachone (20 mg/kg, 5 mice). […]

[1] = Muscle loss (body weight, gastrocnemius muscle weight) in 3×ACP animal model; details: 3×ACP i.p. once; dunnione 20 mg/kg oral daily from 3 days before; 2 and 4 days after ACP
Description: as §1, with “invention.” for “invention. In the adriamycin-induced animal model, the mice were divided into 6 groups as follows: the control group administered with PBS (Control, 5 mice), the group administered intraperitoneally with adriamycin (4 mg/kg/day) 3 times (ADR, 5 mice), the group administered orally with dunnione or β-lapachone from 3 days before the adriamycin treatment daily (20 mg/kg, 5 mice), and the group administered with dunnione or β-lapachone (20 mg/kg, 5 mice).”
To investigate the regulatory effect of dunnione on muscle loss in the 3×ACP animal models prepared by the same manner as described in Example 6, the changes of body weight and gastrocnemius muscle weight were measured after the drug treatment.

[2] = system: MAFbx, MuRF1 and Bnip3 mRNAs; experiment: Muscle loss related gene expression in cyclophosphamide induced animal model; details: cyclophosphamide 350 mg/kg total; dunnione 20 mg/kg oral; vs cyclophosphamide group
[3] = system: inflammatory cytokines TNF-α, IL-1β, IL-6 and IL-17; experiment: Plasma inflammatory cytokines by ELISA in gemcitabine (500 mg/kg) animal model; details: gemcitabine 500 mg/kg i.p. once; dunnione 20 mg/kg oral daily from 3 days before; 2 days after gemcitabine; vs gemcitabine group
Description: as §1, with “invention.” for “invention. In the adriamycin-induced animal model, the mice were divided into 6 groups as follows: the control group administered with PBS (Control, 5 mice), the group administered intraperitoneally with adriamycin (4 mg/kg/day) 3 times (ADR, 5 mice), the group administered orally with dunnione or β-lapachone from 3 days before the adriamycin treatment daily (20 mg/kg, 5 mice), and the group administered with dunnione or β-lapachone (20 mg/kg, 5 mice).”
Plasma was isolated from the gemcitabine animal model prepared by the same manner as described in Example 5, and the inflammatory cytokines TNF-α, IL-1β, IL-6 and IL-17 were analyzed by ELISA.

With `CC1OC2=C(C(=O)C(=O)c3ccccc32)C1(C)C` (centres unmarked) [dunnione, 2,3-dihydro-2,3,3-trimethyl naphtho [1,2-b]furan-4,5-dione] the “up-regulation of TNF-α in the bone (femur)” value (TNF-α) was “significantly suppressed”, the “reduction of gastrocnemius muscle weight and gastrocnemius muscle weight change” value [1] was “significantly restored” and the “weight loss (body weight)” value [1] was “significantly restored”. The “expressions of MAFbx, MuRF1 and Bnip3 mRNAs in muscle” value [2] was “significantly reduced” and the “level of inflammatory cytokines (TNF-α, IL-1β, IL-6, IL-17) in plasma” value [3] was “significantly reduced”.
